Data reported in article PMC6445226, “Kinetic study on the inhibition of xanthine oxidase by acylated derivatives of flavonoids synthesised enzymatically” (Journal of Enzyme Inhibition and Medicinal Chemistry, 2017).
Read-outs that look alike come from different tables or passages of the source.

How the values were obtained:
XO [1] = system: XO; parameters: method as in earlier work; details: XO inhibition; cited from earlier work
[2] = Partition coefficient determination in octanol/water (k); assay type: physicochemical; details: octan-1-ol/water, 50 μM sample, UHPLC-MS; SD <0.01
Procedure: The partition coefficients of the untreated flavonoids in octanol/water (k) were analysed to determine their degrees of lipophilicity. In test tubes, 2.0 ml of a solution of the sample with a concentration of 50 μM were added to 2.0 ml of octanol saturated with water. The mixture was shaken for 1 min and then centrifuged for 15 min at 3000 rpm. […] The partition coefficient was obtained using the equation: k=Co/Ca×r; where Co = test compound concentration in octanol, Ca = test compound concentration in aqueous solution, r = ratio of the volumes of the oily and the aqueous phases.

XO [3] = system: XO; parameters: method as in PMID 12231379; details: XO inhibition; cited from earlier work
[4] = molecular target: T1, xanthine oxidase from bovine milk (Bos taurus, UniProt P80457); test: Inhibition of xanthine oxidase (XO) activity, uric acid formed from xanthine, absorbance at 290 nm; assay type: biochemical; details: for inhibition at 45 µM: read-out: Xanthine oxidase inhibition (XOI %); for IC50: value of x when y = 50 from straight line equation of XOI % vs concentration
T1 construct: xanthine oxidase from bovine milk; purchased Sigma-Aldrich Chemical Co., St. Louis, MO; host or cells: bovine milk (natural source)
Procedure: Inhibition of XO activity was assessed by measuring the uric acid formed from the xanthine substrate. Solutions of xanthine in various concentrations in a 0.1 M, pH 7.4 phosphate buffer were incubated together with 100 μl of ethanol and the same volume of samples of the solutions with different concentrations (45 and 90 μM in a 0.1 M, pH 7.4 phosphate buffer). The samples were pre-incubated at 37 °C for 10 min. The XO solution (0.3 ml, 0.1 U/ml) was added to the reaction mixture and the flasks were incubated at 37 °C for 20 min. The enzymatic reaction was interrupted by adding 25 μl of 3.2% HCl. The absorption of the samples was measured using an ELISA reader Epoch, BioTek (Winooski, VT) at 290 nm. The uric acid production was calculated from the differential absorbance with a blank solution without xanthine oxidase. The control was a solution containing xanthine and XO.
Vmax (maximum reaction rate) and Km (Michaelis–Menten constant, that is the substrate concentration at 1/2 the maximum reaction rate) were calculated and the type of inhibition kinetics was identified using the Origin 8.6 program and the rectangular hyperbola model. […] Reaction rate (expressed as uric acid concentration in μmol/min) was obtained from the uric acid standard curve (y = 0.024x − 0.1242, R^2 = 0.9786).

[5] = inhibitor at 45 μM, 250 μM of xanthine substrate, derivatives after 12 h of enzymatic acylation

T1 sequence (P80457 whole entry): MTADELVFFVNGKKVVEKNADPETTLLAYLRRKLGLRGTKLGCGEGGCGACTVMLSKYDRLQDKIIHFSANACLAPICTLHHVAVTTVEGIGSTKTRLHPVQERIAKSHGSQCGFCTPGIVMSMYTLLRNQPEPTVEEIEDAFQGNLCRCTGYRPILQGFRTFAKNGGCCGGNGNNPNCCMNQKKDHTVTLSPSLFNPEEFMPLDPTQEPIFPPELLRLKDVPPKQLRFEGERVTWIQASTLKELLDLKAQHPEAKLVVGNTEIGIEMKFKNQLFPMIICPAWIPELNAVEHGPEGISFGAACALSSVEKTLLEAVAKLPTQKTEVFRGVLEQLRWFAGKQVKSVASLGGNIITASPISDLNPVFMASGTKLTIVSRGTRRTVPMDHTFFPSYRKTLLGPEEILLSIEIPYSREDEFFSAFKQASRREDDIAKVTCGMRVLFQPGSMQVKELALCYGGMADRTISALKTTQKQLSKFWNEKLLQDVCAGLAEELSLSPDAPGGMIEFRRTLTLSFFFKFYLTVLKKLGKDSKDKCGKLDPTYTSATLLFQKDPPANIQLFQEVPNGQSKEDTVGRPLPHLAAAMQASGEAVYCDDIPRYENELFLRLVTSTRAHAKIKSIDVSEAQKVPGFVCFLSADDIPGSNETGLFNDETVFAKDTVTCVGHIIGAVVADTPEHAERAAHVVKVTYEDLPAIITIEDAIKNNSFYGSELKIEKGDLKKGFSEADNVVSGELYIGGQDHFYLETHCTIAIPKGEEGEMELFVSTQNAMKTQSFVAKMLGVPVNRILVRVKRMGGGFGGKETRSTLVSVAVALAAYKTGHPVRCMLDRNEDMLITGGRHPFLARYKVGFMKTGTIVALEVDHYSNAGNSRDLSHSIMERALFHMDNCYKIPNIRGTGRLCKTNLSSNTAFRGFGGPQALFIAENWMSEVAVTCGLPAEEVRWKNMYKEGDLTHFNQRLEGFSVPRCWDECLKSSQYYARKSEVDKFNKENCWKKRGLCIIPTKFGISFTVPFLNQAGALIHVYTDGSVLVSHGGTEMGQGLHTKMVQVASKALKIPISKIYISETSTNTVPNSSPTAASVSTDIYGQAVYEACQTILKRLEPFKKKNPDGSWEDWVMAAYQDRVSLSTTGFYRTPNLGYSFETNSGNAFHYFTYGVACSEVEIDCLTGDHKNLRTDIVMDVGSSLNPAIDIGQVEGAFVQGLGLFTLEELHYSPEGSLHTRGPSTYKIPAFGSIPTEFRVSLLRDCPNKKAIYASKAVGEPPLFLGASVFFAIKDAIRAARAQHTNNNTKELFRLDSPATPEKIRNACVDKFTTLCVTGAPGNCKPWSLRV

Compound	Partition coefficient (k) [2]	IC50 [4]	Xanthine oxidase inhibition (XOI %) [4, 5]	other results
isoquercitrin butyrate				IC50 (XO [1]): 144 µM
C[C@@H]1O[C@@H](OC[C@H]2O[C@@H](Oc3c(-c4ccc(O)c(O)c4)oc4cc(O)cc(O)c4c3=O)[C@H](O)[C@@H](O)[C@@H]2O)[C@H](O)[C@H](O)[C@H]1O [Rutin, rutin]	0.48			
isoquercitrin stearate				IC50 (XO [1]): 61 µM
O=c1c(O)c(-c2ccc(O)cc2O)oc2cc(O)cc(O)c12 [morin]				IC50 (XO [3]): 40 µM
O=c1c(O)c(-c2ccc(O)cc2)oc2cc(O)cc(O)c12 [kaempferol]				IC50 (XO [3]): 2.5 µM
C[C@@H]1O[C@@H](O[C@H]2[C@H](Oc3cc(O)c4c(c3)O[C@H](c3ccc(O)cc3)CC4=O)O[C@H](CO)[C@@H](O)[C@@H]2O)[C@H](O)[C@H](O)[C@H]1O [Naringin, naringin]	0.37	206 µM		inhibition at 45 µM [4, 5]: 14.8 ± 4.8%
O=c1c(O)c(-c2ccc(O)c(O)c2)oc2cc(O)cc(O)c12 [Quercetin, quercetin]	1.46			
Hesperidin decanoate	0.83	199 µM	16.42 ± 3.21%	
COc1ccc([C@@H]2CC(=O)c3c(O)cc(O[C@@H]4O[C@H](CO[C@@H]5O[C@@H](C)[C@H](O)[C@@H](O)[C@H]5O)[C@@H](O)[C@H](O)[C@H]4O)cc3O2)cc1O [Hesperidin, hesperidin]	0.42	333 µM	8.24 ± 2.10%	
isoquercitrin oleate				IC50 (XO [1]): 27 µM
Naringin octanoate		110 µM	28.80 ± 5.76%	
Naringin decanoate	0.86	118 µM	25.61 ± 2.85%	
Oc1ncnc2[nH]ncc12 [Allopurinol, allopurinol]				inhibition at 45 µM [4]: 89.7%
